Results as given in publication PMC6178282, “Comparative cell biological study of in vitro antitumor and antimetastatic activity on melanoma cells of GnRH-III-containing conjugates modified with short-chain fatty acids” (Beilstein Journal of Organic Chemistry, 2018).

How the values were obtained:
A2058 cells = test: Cellular uptake by flow cytometry (Dau fluorescence); type: cell-based, human; conditions: 10^−5 M, 1, 4 and 6 h, FACSCalibur flow cytometry, mean of 2 parallels
Method: For investigation and comparison of the cellular uptake of the conjugates, A2058 cells were treated with the conjugates at 10^−5 M concentration for 1, 4 and 6 h. The fluorescence intensity of intracellular Dau built in the conjugates and as the free drug was determined by flow cytometry (FACSCalibur; Becton Dickinson, San Jose, CA, USA).
Figure 2 Cellular uptake of Dau–GnRH-III conjugates and free daunorubicin (Dau) by A2058 cells. Cellular uptake of the compounds was studied in 10^−5 M concentration. GeoMean (geometric mean channel) value is a dimensionless value and refers to the relative fluorescence intensity. Data shown are mean of 2 parallels ± SD. […]
To study the cellular uptake of conjugates and Dau as the reference drug, A2058 cells (2 × 10^5 cells/well) were seeded on 12-well plates and cultured for 24 h. […] The measurements of internalized conjugates are based on the fluorescence activity of Dau. For detecting the intracellular fluorescence intensity of the cells, which is proportional with the cellular uptake, FACSCalibur flow cytometer (Becton Dickinson, San Jose, CA, USA) was used by collecting 10000 cells for each measurement. […] CellQuest Pro program (Becton-Dickinson, San Jose, CA, USA) was used for the measurement and the evaluation of relative fluorescence intensity (geometric mean channel – GeoMean values). […]

A2058 melanoma cells = test: Apoptosis assay, Vitabright-48 thiol staining, NucleoCounter NC-250 image cytometer; type: cell-based, human; conditions: 10^−5 M, 24 h, NucleoCounter NC-250, average of two parallels ± S.D., control 8.7 ± 0.72
Method: The pro-apoptotic effects of conjugates and Dau at 10^−5 M concentration was studied after 24 h incubation by flow cytometry using FITC-annexin V (Sony Biotechnology, Weybridge, UK) and a novel image cytometer (NucleoCounter® NC-250^TM, ChemoMetec A/S, Lillerød, Denmark) using Vitabright-48™ (ChemoMetec A/S, Lillerød, Denmark), a cell permeable dye that reacts with thiol groups to form a fluorescent product. […]
normalizing the viability of conjugate-treated cells with that of the control cells, and these indices of groups pretreated with inhibitors or DMSO were statistically compared.
The apoptotic effect of conjugates and Dau was determined by a FACSCalibur flow cytometer (Becton Dickinson, San Jose, CA, USA) after staining with annexin V-FITC (Sony Biotechnology, Weybridge, UK) and NucleoCounter® NC-250™ cell analyzer (ChemoMetec A/S, Lillerød, Denmark) using Vitabright-48™, a cell-permeable fluorescent dye (ChemoMetec A/S, Lillerød, Denmark). […]
The cells were dissociated by a TrypLE reagent (Thermo Fisher Scientific, Waltham, MA, USA) composed of recombinant enzyme protecting the cell’s surface proteins and it was followed by a centrifugation and a washing step with PBS. […] Before labeling with annexin V-FITC, the cells were measured by a flow cytometer for controlling the autofluorescence of cells in case of each treatment group. […]

COc1cccc2c1C(=O)c1c(O)c3c(c(O)c1C2=O)C[C@@](O)(C(C)=O)C[C@@H]3O[C@H]1C[C@H](N)[C@H](O)[C@H](C)O1 [daunorubicin]
Cellular uptake (GeoMean, relative intracellular fluorescence intensity normalized to control) (A2058 cells): high level of intracellular fluorescence
the ratio of apoptotic cells, Vitabright-48™ (A2058 melanoma cells): 30.9 ± 0.68 %
